Laboratory results reported in publication PMC10385824, “Antiproliferative and Tubulin-Destabilising Effects of 3-(Prop-1-en-2-yl)azetidin-2-Ones and Related Compounds in MCF-7 and MDA-MB-231 Breast Cancer Cells” (Pharmaceuticals, 2023).

Test system: not given
Experiment: not given
Conditions: not given

melting point [°C] | Compound
126 to 127 | C=C(C)C1C(=O)N(c2cc(OC)c(OC)c(OC)c2)C1c1ccc(Oc2ccccc2)cc1 (centres unmarked) [9k, 4-(4-Phenoxyphenyl)-1-(3,4,5-trimethoxyphenyl)-3-(prop-1-en-2-yl)azetidin-2-one]
104 to 105 | C=C(C)C1C(=O)N(c2ccccc2)C1c1ccc(OC)cc1 (centres unmarked) [9x, 4-(4-Methoxyphenyl)-1-phenyl-3-(prop-1-en-2-yl)azetidin-2-one]

Second part, the compound before the results:

Compound | melting point [°C]
COC(=O)C1=C(C(=O)OC)C(C2C(=O)N(c3cc(OC)c(OC)c(OC)c3)C2c2cccc3ccccc23)CC=C1 (single isomer, unassigned) [22a, Dimethyl-6-(1-(3,4,5-trimethoxyphenyl)-2-(naphthalen-1-yl)-4-oxoazetidin-3-yl)cyclohexa-1,3-diene-1,2-dicarboxylate] | 120 to 122
C=C(C)C1C(=O)N(c2cc(OC)c(OC)c(OC)c2)C1c1ccc([N+](=O)[O-])cc1 (centres unmarked) [9a, 4-(4-Nitrophenyl)-1-(3,4,5-trimethoxyphenyl)-3-(prop-1-en-2-yl)azetidin-2-one] | 129 to 130
C=C/C=C/C1C(=O)N(c2cc(OC)c(OC)c(OC)c2)C1c1ccc(OC)c([N+](=O)[O-])c1 (centres unmarked) [11q, (E)-3-(Buta-1,3-dien-1-yl)-4-(4-methoxy-3-nitrophenyl)-1-(3,4,5-trimethoxyphenyl)azetidin-2-one] | 88 to 90
C=C(C)C1C(=O)N(c2cc(OC)c(OC)c(OC)c2)C1c1ccccc1 (centres unmarked) [9f, 4-Phenyl-1-(3,4,5-trimethoxyphenyl)-3-(prop-1-en-2-yl)azetidin-2-one] | 108 to 109
C=C(C)C1C(=O)N(c2cc(OC)c(OC)c(OC)c2)C1c1ccc(OCCCC)cc1 (centres unmarked) [9j, 4-(4-Butoxyphenyl)-1-(3,4,5-trimethoxyphenyl)-3-(prop-1-en-2-yl)azetidine-2-one] | 55 to 57
C=C(C)C1C(=O)N(c2cc(OC)c(OC)c(OC)c2)C1c1ccc(F)cc1 (centres unmarked) [9d, 4-(4-Fluorophenyl)-1-(3,4,5-trimethoxyphenyl)-3-(prop-1-en-2-yl)azetidin-2-one] | 99 to 100

Test system: MCF-7 human breast cancer cells
Experiment: cells
Conditions: MCF7

Compound | IC50 [µM]
C=C(C)C1C(=O)N(c2cc(OC)c(OC)c(OC)c2)C1c1ccc(OC)c([N+](=O)[O-])c1 (centres unmarked) [9r, 4-(4-Methoxy-3-nitrophenyl)-1-(3,4,5-trimethoxyphenyl)-3-(prop-1-en-2-yl)azetidin-2-one] | 0.01 to 0.033

Same assay, conditions: MCF7, 72 h, MCF-7, Figure 2, 72 h

IC50 [µM] | Compound
8.07 | C=C(C)C1C(=O)N(c2cc(OC)c(OC)c(OC)c2)C1c1cccc2ccccc12 (centres unmarked) [9m, 4-Naphthalen-1-yl-1-(3,4,5-trimethoxyphenyl)-3-(prop-1-en-2-yl)azetidin-2-one]
4.92 | C=C(C)C1C(=O)N(c2cc(OC)c(OC)c(OC)c2)C1c1ccc(OC)c(NC(=O)C(N)Cc2ccccc2)c1 (centres unmarked) [13a, 2-Amino-N-(2-methoxy-5-(1-(3,4,5-trimethoxyphenyl)-4-oxo-3-(prop-1-en-2-yl)azetidin-2-yl)phenyl)-3-phenylpropanamide]

Same assay, conditions: MCF7, 72 h, read-out: Antiproliferative Activity IC50, MCF-7, 72 h, eight concentrations 1–50 μM, mean ± SEM, Table 2

IC50 [µM] | Compound
4.96 ± 0.69 | C=C(C)C1C(=O)N(c2cc(OC)c(OC)c(OC)c2)C1c1ccc([N+](=O)[O-])cc1 (centres unmarked) [9a, 4-(4-Nitrophenyl)-1-(3,4,5-trimethoxyphenyl)-3-(prop-1-en-2-yl)azetidin-2-one]
44.1 ± 2.57 | C=C(C)C1C(=O)N(c2cc(OC)c(OC)c(OC)c2)C1c1cccc2ccccc12 (centres unmarked) [9m, 4-Naphthalen-1-yl-1-(3,4,5-trimethoxyphenyl)-3-(prop-1-en-2-yl)azetidin-2-one]
0.494 ± 0.14 | C=C(C)C1C(=O)N(c2cc(OC)c(OC)c(OC)c2)C1c1ccccc1 (centres unmarked) [9f, 4-Phenyl-1-(3,4,5-trimethoxyphenyl)-3-(prop-1-en-2-yl)azetidin-2-one]
0.691 ± 0.1 | C=C(C)C1C(=O)N(c2cc(OC)c(OC)c(OC)c2)C1c1ccc(F)cc1 (centres unmarked) [9d, 4-(4-Fluorophenyl)-1-(3,4,5-trimethoxyphenyl)-3-(prop-1-en-2-yl)azetidin-2-one]

Same assay, conditions: MCF7, 72 h, read-out: Antiproliferative Activity IC50, MCF-7, 72 h, eight concentrations (0.001–50 mM [sic]), mean ± SEM, Table 5

IC50 [µM] | Compound
75.4 ± 8.12 | O=C1C(CC=Cc2ccccc2)C(c2ccccc2)N1c1ccccc1 (centres unmarked) [17c, 3-Cinnamyl-1,4-diphenylazetidin-2-one]
1.09 ± 0.08 | COc1ccc(C2C(CC=Cc3ccccc3)C(=O)N2c2cc(OC)c(OC)c(OC)c2)cc1O (centres unmarked) [17b, 3-Cinnamyl-4-(3-hydroxy-4-methoxyphenyl)-1-(3,4,5-trimethoxyphenyl)azetidin-2-one]
4.76 ± 0.56 | COc1ccc(C2C(CC=Cc3ccc(C(F)(F)F)cc3)C(=O)N2c2ccccc2)cc1 (centres unmarked) [17e, 3-(4-(Trifluoromethyl)cinnamyl)-4-(4-methoxyphenyl)-1-phenylazetidin-2-one]
49.5 ± 5.23 | COc1ccc(C2C(CC=Cc3ccc(C(F)(F)F)cc3)C(=O)N2c2cc(OC)c(OC)c(OC)c2)cc1 (centres unmarked) [17d, 3-(4-(Trifluoromethyl)cinnamyl)-4-(4-methoxyphenyl)-1-(3,4,5-trimethoxyphenyl) azetidin-2-one]
7.71 ± 0.78 | COc1ccc(C2C(C=Cc3ccc(C(F)(F)F)cc3)C(=O)N2c2cc(OC)c(OC)c(OC)c2)cc1 (centres unmarked) [compound 19, 3-(4-(Trifluoromethyl)styryl)-1-(3,4,5-trimethoxyphenyl)-4-(4-methoxyphenyl)azetidin-2-one]
51.5 ± 5.46 | COc1cc(N2C(=O)C(CC3CO3)C2c2ccccc2)cc(OC)c1OC (centres unmarked) [compound 20, 1-(3,4,5-Trimethoxyphenyl)-3-((oxiran-2-yl)methyl)-4-phenylazetidin-2-one]
0.075 ± 0.01 | CCOC(=O)CC1C(=O)N(c2cc(OC)c(OC)c(OC)c2)C1c1ccc(OC)c(O)c1 (centres unmarked) [17g, Ethyl-2-(2-(3-hydroxy-4-methoxyphenyl)-1-(3,4,5-trimethoxyphenyl)-4-oxoazetidin-3-yl)acetate]

Same assay, conditions: MCF7, read-out: Antiproliferative Activity IC50

Compound | IC50 [µM]
C=CCC1C(=O)N(c2cc(OC)c(OC)c(OC)c2)C1c1ccc(OC)c(OP(=O)(O)O)c1 (centres unmarked) [15c, 5-(3-Allyl-1-(3,4,5-trimethoxyphenyl)-4-oxoazetidin-2-yl)-2-methoxyphenyl dihydrogen phosphate] | 0.094 ± 0.015
CCCC1C(=O)N(c2cc(OC)c(OC)c(OC)c2)C1c1ccc(OC)c(OP(=O)(O)O)c1 (centres unmarked) [15d, 2-Methoxy-5-(1-(3,4,5-trimethoxyphenyl)-4-oxo-3-propylazetidin-2-yl)phenyl dihydrogen phosphate] | 0.032 ± 0.005

Same assay, conditions: MCF7, read-out: Antiproliferative Activity IC50, MCF-7, eight concentrations 0.001–50 μM, mean ± SEM, Table 3

IC50 [µM] | Compound
84.5 ± 8.1 | C=CCC1C(=O)N(c2ccccc2)C1c1ccc(OC)cc1 (centres unmarked) [10s, 3-Allyl-4-(4-Methoxyphenyl)-1-phenylazetidin-2-one]
9.61 ± 1.2 | C=CCC1C(=O)N(c2cc(OC)c(OC)c(OC)c2)C1c1ccccc1 (centres unmarked) [10f, 3-Allyl-4-phenyl-1-(3,4,5-trimethoxyphenyl)azetidin-2-one]
0.318 ± 0.03 | C=CCC1C(=O)N(c2cc(OC)c(OC)c(OC)c2)C1c1ccc2ccccc2c1 (centres unmarked) [10n, 3-Allyl-4-naphthalen-2-yl-1-(3,4,5-trimethoxyphenyl)azetidin-2-one]
10.7 ± 1.94 | C=CCC1C(=O)N(c2cc(OC)c(OC)c(OC)c2)C1c1ccc(OC)c(NC(=O)C(N)Cc2ccccc2)c1 (centres unmarked) [13b, N-(5-(3-Allyl-1-(3,4,5-trimethoxyphenyl)-4-oxoazetidin-2-yl)-2-methoxyphenyl)-2-amino-3-phenylpropanamide]
0.091 ± 0.01 | C=CCC1C(=O)N(c2cc(OC)c(OC)c(OC)c2)C1c1ccc(OCC)cc1 (centres unmarked) [10i, 3-Allyl-4-(4-ethoxyphenyl)-1-(3,4,5-trimethoxyphenyl)azetidin-2-one]
7.49 ± 0.6 | C=CCC1C(=O)N(c2cc(OC)c(OC)c(OC)c2)C1c1ccc(Oc2ccccc2)cc1 (centres unmarked) [10k, 3-Allyl-4-(4-phenoxyphenyl)-1-(3,4,5-trimethoxyphenyl)azetidin-2-one]
0.621 ± 0.095 | C=CCC1C(=O)N(c2cc(OC)c(OC)c(OC)c2)C1c1ccc(Cl)cc1 (centres unmarked) [10b, 3-Allyl-4-(4-chlorophenyl)-1-(3,4,5-trimethoxyphenyl)azetidin-2-one]
0.944 ± 0.1 | C=CCC1C(=O)N(c2cc(OC)c(OC)c(OC)c2)C1c1ccc(Br)cc1 (centres unmarked) [10c, 3-Allyl-4-(4-bromophenyl)-1-(3,4,5-trimethoxyphenyl)azetidin-2-one]

More lines, now with the values behind:

Compound | IC50 [µM]
C=CCC1C(=O)N(c2cc(OC)c(OC)c(OC)c2)C1c1ccc(OCCCC)cc1 (centres unmarked) [10j, 3-Allyl-4-(4-butoxyphenyl)-1-(3,4,5-trimethoxyphenyl)azetidin-2-one] | 17.4 ± 1.23
C=CCC1C(=O)N(c2cc(OC)c(OC)c(OC)c2)C1c1ccc(N(C)C)cc1 (centres unmarked) [10e, 3-Allyl-4-(4-dimethylaminophenyl)-1-(3,4,5-trimethoxyphenyl)azetidin-2-one] | 4.46 ± 0.11
C=CCC1C(=O)N(c2cc(OC)c(OC)c(OC)c2)C1c1ccc([N+](=O)[O-])cc1 (centres unmarked) [10a, 3-Allyl-4-(4-nitrophenyl)-1-(3,4,5-trimethoxyphenyl)azetidin-2-one] | 4.13 ± 0.62
C=CCC1C(=O)N(c2cc(OC)c(OC)c(OC)c2)C1c1ccc(OC)c(NC(=O)C(N)C(C)C)c1 (centres unmarked) [13c, N-(5-(3-Allyl-1-(3,4,5-trimethoxyphenyl)-4-oxoazetidin-2-yl)-2-methoxyphenyl)-2-amino-3-methylbutanamide] | 13 ± 1.25

Same assay, conditions: MCF7, read-out: Antiproliferative Activity IC50, MCF-7, eight concentrations 0.001–50 μM, mean ± SEM, Table 4

IC50 [µM] | Compound
0.296 ± 0.05 | C=C/C=C/C1C(=O)N(c2cc(OC)c(OC)c(OC)c2)C1c1ccc2ccccc2c1 (centres unmarked) [11n, (E)-3-(Buta-1,3-dien-1-yl)-4-(naphthalen-2-yl)-1-(3,4,5-trimethoxyphenyl)azetidin-2-one]
15.2 ± 1.41 | C=C/C=C/C1C(=O)N(c2ccccc2)C1c1ccc(OC)cc1 (centres unmarked) [11s, (E)-3-(Buta-1,3-dien-1-yl)-4-(4-methoxyphenyl)-1-phenylazetidin-2-one]
145 ± 11.7 | C=C/C=C/C1C(=O)N(c2cc(OC)c(OC)c(OC)c2)C1c1ccc(OCc2ccccc2)cc1 (centres unmarked) [11l, (E)-3-(Buta-1,3-dien-1-yl)-4-(4-benzyloxyphenyl)-1-(3,4,5-trimethoxyphenyl)azetidin-2-one]

Second part, the compound before the results:

Compound | IC50 [µM]
C=C/C=C/C1C(=O)N(c2cc(OC)c(OC)c(OC)c2)C1c1ccc(OC)c([N+](=O)[O-])c1 (centres unmarked) [11q, (E)-3-(Buta-1,3-dien-1-yl)-4-(4-methoxy-3-nitrophenyl)-1-(3,4,5-trimethoxyphenyl)azetidin-2-one] | 0.511 ± 0.09
C=C/C=C/C1C(=O)N(c2cc(OC)c(OC)c(OC)c2)C1c1ccc(OCCCC)cc1 (centres unmarked) [11j, (E)-3-(Buta-1,3-dien-1-yl)-4-(4-butoxyphenyl)-1-(3,4,5-trimethoxyphenyl)-azetidin-2-one] | 182 ± 19.4
C=C/C=C/C1C(=O)N(c2cc(OC)c(OC)c(OC)c2)C1c1ccc(N(C)C)cc1 (centres unmarked) [11e, (E)-3-(Buta-1,3-dien-1-yl)-4-(4-dimethylaminophenyl)-1-(3,4,5-trimethoxyphenyl)azetidin-2-one] | 1.93 ± 0.34
C=CC=CC1C(=O)N(c2cc(OC)c(OC)c(OC)c2)C1c1ccc(OC)c(NC(=O)CN)c1 (centres unmarked) [13e, 2-Amino-N-(5-(3-(buta-1,3-dienyl)-1-(3,4,5-trimethoxyphenyl)-4-oxoazetidin-2-yl)-2-methoxyphenyl)acetamide] | 9.36 ± 1.21
C=C/C=C/C1C(=O)N(c2cc(OC)c(OC)c(OC)c2)C1c1ccc(OC)c(NC(=O)C(N)C(C)C)c1 (centres unmarked) [13d, 2-Amino-N-(5-(3-((E)-buta-1,3-dienyl)-1-(3,4,5-trimethoxyphenyl)-4-oxoazetidin-2-yl)-2-methoxyphenyl)-3-methylbutanamide] | 24.2 ± 3.91
